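Compound exposure: 48 hours, 5 concentrations, 96-well plates. At the GI50, growth is halved.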 Activity calls are given as the source filed them. Rule as the data show it: active = GI50 up to about 1.1 µM and inactive = higher.

Holding throughout (assay): NCI-60 cell line screen, 48 h
Test [1] has as its system A498.
Test [2] concerns A549.
Test [3] relates to CAKI-1.
The subject of test [4] is CCRF-CEM.
Test [5] concerns DU-145.
The subject of test [6] is HCT-15.
For test [7], the system named is HOP-62.
The subject of test [8] is HT-29.
Test [9] has as its system IGROV-1.
The subject of test [10] is K562.
The test system of test [11] is KM12.
Test [12] concerns MCF7.
The test system of test [13] is MDA-MB-231.
The subject of test [14] is MOLT-4.
Test [15] concerns NCI-H23.
Test [16] concerns RPMI-8226.
Test [17] deals with SF-539.
Test [18] relates to SNB-75.
Test [19] deals with U-251.
Test [20] has as its system UACC-62.

`Clc1ccc(Nc2nc(Cl)c3nc[nH]c3n2)cc1Cl`: the GI50 in test [1] was 18.4 µM (inactive); in [2], 30.1 µM (inactive); in test [3], 3.29 µM (inactive); in [4], 18.7 µM (inactive); in test [5] it was 28.5 µM (inactive); in test [6] it was 21 µM. Also, the GI50 is 15.9 µM (inactive) in test [7]; 18.2 µM (inactive) in [8]; 22.2 µM (inactive) in [9]; 37.2 µM (inactive) in [10]; 18.1 µM (inactive) in test [11]; 30.5 µM (inactive) in test [12]. In addition, the GI50 in test [13] is 21.1 µM (inactive); in [14], 24 µM (inactive); in test [15] it was 25.4 µM (inactive); in test [16] it was 29 µM (inactive); in [17], > 10 µM (inactive); in [18], 18.8 µM (inactive). For the same compound, the GI50 in [19] is 29.1 µM (inactive); in test [20], 33.6 µM (inactive).

With `Cc1cccc(/C=N/NC(=S)NCCc2ccccn2)n1`, the GI50 is 34 µM (inactive) in test [1]; 36.6 µM (inactive) in [2]; 26.7 µM (inactive) in test [3]; 9.89 µM (inactive) in test [4]; 22.3 µM (inactive) in test [5]; 26.5 µM in test [6]. For the same compound, the GI50 in [7] was 18 µM (inactive); in [8], 27.9 µM (inactive); in test [9], 20.1 µM (inactive); in test [10], 30.8 µM (inactive); in test [11], 36.4 µM (inactive); in test [12], 37.2 µM (inactive). In addition, the GI50 in test [13] is 39 µM (inactive); in test [14], 18.9 µM (inactive); in test [15] it was 26.6 µM (inactive); in test [16] it was > 53.2 µM (inactive); in test [17], 26.7 µM (inactive); in [18], 20.3 µM (inactive). Further, the GI50 is 20.4 µM (inactive) in test [19] and 22.5 µM (inactive) in test [20].

Regarding `N#CCN(Cc1ccccc1)[C@H]1CCC[C@]1(O)/C=C/c1ccc2c(c1)OCO2`, the GI50 was 37.2 µM (inactive) in test [1]; 38.4 µM (inactive) in [2]; 36.1 µM (inactive) in test [3]; 16.4 µM (inactive) in test [4]; 62.1 µM (inactive) in [5]; 22.2 µM in test [6]. Besides, the GI50 in test [7] is 26.3 µM (inactive); in [8], 16 µM (inactive); in [9] it was 23.1 µM (inactive); in test [10] it was 24.5 µM (inactive); in test [11] it was 20 µM (inactive); in [12], 18.7 µM (inactive). For the same compound, the GI50 in [13] is 21.4 µM (inactive); in test [14], 21.7 µM (inactive); in test [15] it was 24.9 µM (inactive); in test [16], 19.8 µM (inactive); in test [17], 41.1 µM (inactive); in test [18], 28.4 µM (inactive). Moreover, the GI50 in test [19] is 19.2 µM (inactive); in test [20], 16.1 µM (inactive).

In the case of `O=C(c1c(F)c(F)c(F)c(F)c1F)c1c(F)c(F)c(F)c(F)c1F`, the GI50 is 3.06 µM (inactive) in test [1]; 3.53 µM (inactive) in [2]; 0.914 µM (active) in [3]; 0.0553 µM (active) in test [4]; 1.96 µM (inactive) in [5]; 1.55 µM in [6]. The GI50 in test [7] was 1.81 µM (inactive); in [8], 1.32 µM (inactive); in test [9] it was 1.3 µM (inactive); in test [10] it was 0.316 µM (active); in test [11] it was 0.535 µM (active); in test [12] it was 0.299 µM (active). The GI50 in [13] was 1.85 µM (inactive); in test [14], 0.171 µM (active); in test [15], 2.48 µM (inactive); in test [16] it was 0.0528 µM (active); in test [17], 1.09 µM (active); in [18], 1.98 µM (inactive). Besides, the figures for the GI50 in [19] and in test [20] were 0.951 µM (active) and 1.92 µM (inactive), respectively.

Turning to `O=C(O)C1CC(c2ccccc2)=NN1c1ccccc1` (stereo not given), the GI50 in test [1] is 51.4 µM (inactive); in test [2], 70 µM (inactive); in [3] it was 43.6 µM (inactive); in test [4], 48.4 µM (inactive); in [5], 96.8 µM (inactive); in [6], 34 µM. Moreover, the GI50 in [7] was > 100 µM (inactive); in test [8] it was 34.2 µM (inactive); in test [9], > 100 µM (inactive); in test [10], 47.5 µM (inactive); in [11], 42.9 µM (inactive); in [12] it was 48 µM (inactive). Moreover, the GI50 in [13] was > 100 µM (inactive); in test [14], 31.7 µM (inactive); in test [15] it was 52.6 µM (inactive); in test [16], 40.3 µM (inactive); in [17], 93.5 µM (inactive); in test [18], > 100 µM (inactive). Also, the GI50 in [19] is 62.1 µM (inactive); in test [20], > 100 µM (inactive).

In the case of `O=C(CCN1CCCC1)Nc1ccc2sc3ccccc3c(=O)c2n1`, the GI50 in [1] is 17.8 µM (inactive); in [2], 12.3 µM (inactive); in [3], 11.5 µM (inactive); in test [4] it was 10.2 µM (inactive); in test [5], 15.4 µM (inactive); in [6], 11.5 µM. Also, the GI50 in test [7] was 12.3 µM (inactive); in test [8], 4.35 µM (inactive); in test [9] it was 15.2 µM (inactive); in [10], 13.8 µM (inactive); in test [11] it was 12.8 µM (inactive); in [12] it was 13 µM (inactive). For the same compound, the GI50 in test [13] is 13.3 µM (inactive); in test [14], 4.72 µM (inactive); in [15], 13.1 µM (inactive); in test [16], 12 µM (inactive); in [17], 12.6 µM (inactive); in test [18] it was 11.8 µM (inactive). Besides, the GI50 in [19] is 12.9 µM (inactive); in [20], 12.6 µM (inactive).

Take `COc1ccc(-c2oc3c(OC)c(OC)c(OC)c(O)c3c(=O)c2OC)cc1OC`: the GI50 in test [1] is 19.9 µM (inactive); in [2], 27.5 µM (inactive); in [3], 40.4 µM (inactive); in test [4] it was 16.9 µM (inactive); in [5] it was 36.2 µM (inactive); in test [6] it was 14 µM. The GI50 is 19.5 µM (inactive) in [7]; 23.6 µM (inactive) in test [8]; 3.15 µM (inactive) in [9]; 10.6 µM (inactive) in test [10]; 24.4 µM (inactive) in [11]; 3.97 µM (inactive) in test [12]. The GI50 in test [13] was 22.2 µM (inactive); in test [14], 15.5 µM (inactive); in test [15], 31.1 µM (inactive); in test [16], 16.7 µM (inactive); in [17] it was 19.4 µM (inactive); in [18], 1.66 µM (inactive). Further, the GI50 in test [19] is 27.7 µM (inactive); in [20], 21.8 µM (inactive).

The values above are taken from ChEMBL document CHEMBL1201862, “PubChem BioAssay data set” (2004).
